{"source": "patent US6797861B2", "about": "“Seed shattering” (Bayer BioScience NV, priority 1995, dated 2004)", "type_in_all_cases": "in vivo, Brassica napus", "key": {"[1]": {"system": "pods (8% moisture) of oilseed rape cv Fido", "test": "Cantilever bending test of pod opening force", "settings": "plants sprayed", "procedure": "(§1) Brassica napus cv Fido plants were grown in an unheated greenhouse. At 12 days after germination plants were transferred to, and further grown in, 1000 cm^3 compost. Pods were collected at one week intervals from two to eight weeks after anthesis. The pods were taken from the base of the terminal one of the first three axillary racemes. The pods were separated into dehiscence zone, pod wall and seeds.\nIn a further experiment ethylene production was inhibited by treating the pods with aminoethoxyvinylglycine (AVG), a competitive inhibitor of the enzyme ACC-synthase. AVG was applied 28 days after anthesis at 500 mg/l. […] Decreased endogenous ACC concentrations in both dehiscence zone and seeds of the treated pods correlated with the reduced ethylene production. […] A decrease in endogenous IAA content in the dehiscence zone preceding pod opening was also observed in these experiments both in control and in AVG-treated plants. […]\n3) changes in the mechanical properties of the DZ and their seed shatter resistance by analysing the shatter resistance of individual pods. […] In yet another procedure, susceptibility to crack propagation is determined by friction measurement. In this case, the force generated due to friction between a wedge forced along the DZ is recorded and enables comparison of DZ tissues in selected, extreme examples of resistance."}, "[2]": {"system": "pods of oilseed rape cv Fido", "test": "Pod wall senescence and pod shatter tendency of treated plants", "settings": "spray at 150 mg/l, 35 days after anthesis", "procedure": "as §1\nIn a further experiment ethylene production was inhibited by treating the pods with aminoethoxyvinylglycine (AVG), a competitive inhibitor of the enzyme ACC-synthase. AVG was applied 28 days after anthesis at 500 mg/l. […] Decreased endogenous ACC concentrations in both dehiscence zone and seeds of the treated pods correlated with the reduced ethylene production. […] A decrease in endogenous IAA content in the dehiscence zone preceding pod opening was also observed in these experiments both in control and in AVG-treated plants.\n(§2) To examine the auxin involvement in pod shattering, the synthetic auxin 4-chlorophenoxyacetic acid (4CPA) was used to manipulate auxin levels. 4CPA was applied 35 days after anthesis as a spray at 150 mg/l in order to artificially keep auxin concentration at a high level during the entire period. […] No effect was observed on the endogenous phytohormone concentrations."}, "[3]": {"system": "endogenous ACC and IAA in pod tissues", "test": "Endogenous phytohormone (ACC, IAA) concentrations in pod tissues", "settings": "spray at 150 mg/l, 35 days after anthesis", "procedure": "as §1\nThe samples were grinded with a mortar and pestle and then extracted for 16 hours at −20 C. in a total volume of 80% methanol. Purification and analysis of phytohormones was carried out essentially as described [Bialek and Cohen (1989), Plant Physiol. 90: 398; Prinsen et al. (1991), in: A Laboratory Guide for Cellular and Molecular Plant Biology. Ed. Negrutiu and Gharti-Chhetri. Birkhäuser Verlag, Basel/Boston/Berlin pp.175-185, pp.323-324; Chauvaux et al. (1993), J. Chromatogr. A 657: 337].\nDifferent parts of the pods (pod wall, dehiscence zone and seeds) were screened for endogenous concentrations of the ethylene precursor 1-aminocyclopropane-1-carboxylic acid (ACC) and conjugates thereof as well as for indole-3-acetic acid (IAA) and conjugates thereof.\nIn a further experiment ethylene production was inhibited by treating the pods with aminoethoxyvinylglycine (AVG), a competitive inhibitor of the enzyme ACC-synthase. AVG was applied 28 days after anthesis at 500 mg/l. […]"}, "Beta-Glucanase": {"system": "Beta-Glucanase", "test": "Beta-glucanase activity in the dehiscence zone", "settings": "spray at 150 mg/l, 35 days after anthesis", "procedure": "as §2"}}, "data": [{"smiles": "O=C(O)COc1ccc(Cl)cc1", "note": "[4CPA, 4-chlorophenoxyacetic acid]", "values": [{"measurement": "Force needed to initiate crack (pod opening)", "setting": "[1]", "result": "194.9 10^−3N"}, {"measurement": "Force needed to propagate crack (pod opening)", "setting": "[1]", "result": "222.6 10^−3N"}, {"measurement": "delay of pod wall senescence", "setting": "[2]", "result": "about two"}, {"measurement": "pod shatter tendency", "setting": "[2]", "result": "distinct retardation"}, {"measurement": "effect on endogenous phytohormone concentrations", "setting": "[3]", "result": "No effect"}, {"measurement": "Beta-Glucanase activity in the dehiscence zone", "setting": "Beta-Glucanase", "result": "markedly decreased"}]}]}
